The values that follow are results of earlier work, collected in patent EP0540813B1, “Sustained release formulations of acetazolamide” (AMERICAN CYANAMID COMPANY, priority 1991, dated 1993).

The structures appear in SMILES notation.

The conditions of the series: reported in the literature.

As to `CC(=O)Nc1nnc(S(N)(=O)=O)s1` [acetazolamide, N-(5-sulphamoyl-1,3,4-thiadiazol-2-yl)acetamide], the “plasma levels considered toxic” value is listed as “above 30 µg/ml” and the therapeutic plasma range was 5 to 10 µg/mL.
